According to the kinase profiling compilation of Christmann-Franck et al. (2016):

What was measured:
Test in all cases: KINOMEscan competition binding
Details in all cases: compound 10.0 µM
[1] = molecular target: HIPK1 (human) (UniProt Q86Z02)
[2] = molecular target: MERTK (human) (UniProt Q12866)
[3] = molecular target: LATS2 (human) (UniProt Q9NRM7)
[4] = molecular target: DAPK2 (human) (UniProt Q9UIK4)
[5] = molecular target: SLK (human) (UniProt Q9H2G2)
[6] = molecular target: CLK1 (human) (UniProt P49759)
[7] = molecular target: TXK (human) (UniProt P42681)
[8] = molecular target: CHEK1 (human) (UniProt O14757)
[9] = molecular target: RPS6KA6 KD1 (human) (UniProt Q9UK32)
[10] = molecular target: CDK3 (human) (UniProt Q00526)
[11] = molecular target: MYO3B (human) (UniProt Q8WXR4)
[12] = molecular target: MKNK2 (human) (UniProt Q9HBH9)
[13] = molecular target: CLK2 (human) (UniProt P49760)
[14] = molecular target: PRKD2 (human) (UniProt Q9BZL6)
[15] = molecular target: MAP3K5 (human) (UniProt Q99683)
[16] = molecular target: INSR (human) (UniProt P06213)
[17] = molecular target: MAP2K3 (human) (UniProt P46734)
[18] = molecular target: CAMK1G (human) (UniProt Q96NX5)
[19] = molecular target: STK32B (human) (UniProt Q9NY57)
[20] = molecular target: PKN2 (human) (UniProt Q16513)
[21] = molecular target: ROCK2 (human) (UniProt O75116)
[22] = molecular target: FLT1 (human) (UniProt P17948)
[23] = molecular target: PIK3C2B (human) (UniProt O00750)
[24] = molecular target: CAMK4 (human) (UniProt Q16566)
[25] = molecular target: FGR (human) (UniProt P09769)
[26] = molecular target: ULK3 (human) (UniProt Q6PHR2)
[27] = molecular target: MUSK (human) (UniProt O15146)
[28] = molecular target: RPS6KA1 KD1 (human) (UniProt Q15418)
[29] = molecular target: ITK (human) (UniProt Q08881)
[30] = molecular target: PRKAA1 (human) (UniProt Q13131)
[31] = molecular target: CHUK (human) (UniProt O15111)
[32] = molecular target: FGFR1 (human) (UniProt P11362)
[33] = molecular target: CAMK1D (human) (UniProt Q8IU85)
[34] = molecular target: IGF1R (human) (UniProt P08069)
[35] = molecular target: MAP2K1 (human) (UniProt Q02750)
[36] = molecular target: BMPR2 (human) (UniProt Q13873)
[37] = molecular target: DCLK3 (human) (UniProt Q9C098)
[38] = molecular target: PRKD1 (human) (UniProt Q15139)
[39] = molecular target: MAP3K10 (human) (UniProt Q02779)
[40] = molecular target: EPHA2 (human) (UniProt P29317)

Sequence of MAP3K10 (human) (Q02779 whole entry, looked up): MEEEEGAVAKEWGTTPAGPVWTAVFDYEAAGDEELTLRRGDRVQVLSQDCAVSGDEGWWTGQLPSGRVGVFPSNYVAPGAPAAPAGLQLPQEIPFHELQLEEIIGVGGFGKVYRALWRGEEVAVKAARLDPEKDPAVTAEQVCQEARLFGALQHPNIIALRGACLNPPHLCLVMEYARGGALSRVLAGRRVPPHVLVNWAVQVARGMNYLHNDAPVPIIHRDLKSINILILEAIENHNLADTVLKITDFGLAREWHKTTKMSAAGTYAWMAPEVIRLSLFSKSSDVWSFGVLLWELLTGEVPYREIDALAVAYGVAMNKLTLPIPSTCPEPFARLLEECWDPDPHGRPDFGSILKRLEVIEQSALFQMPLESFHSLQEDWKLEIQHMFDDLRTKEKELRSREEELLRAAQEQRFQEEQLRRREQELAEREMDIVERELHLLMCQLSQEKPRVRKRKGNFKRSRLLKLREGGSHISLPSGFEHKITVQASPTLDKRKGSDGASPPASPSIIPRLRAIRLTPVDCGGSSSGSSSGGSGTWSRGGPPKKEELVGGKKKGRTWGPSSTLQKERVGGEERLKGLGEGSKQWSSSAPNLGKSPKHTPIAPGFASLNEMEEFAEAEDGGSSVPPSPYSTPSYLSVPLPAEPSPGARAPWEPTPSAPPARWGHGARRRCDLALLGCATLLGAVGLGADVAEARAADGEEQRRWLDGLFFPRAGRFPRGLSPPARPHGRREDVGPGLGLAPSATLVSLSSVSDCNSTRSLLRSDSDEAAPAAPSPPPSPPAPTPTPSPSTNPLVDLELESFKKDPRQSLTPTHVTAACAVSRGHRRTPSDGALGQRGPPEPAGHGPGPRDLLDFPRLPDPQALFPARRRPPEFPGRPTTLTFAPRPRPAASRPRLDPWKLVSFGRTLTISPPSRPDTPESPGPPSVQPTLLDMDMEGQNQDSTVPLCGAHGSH
Sequence of HIPK1 (human) (Q86Z02 whole entry, looked up): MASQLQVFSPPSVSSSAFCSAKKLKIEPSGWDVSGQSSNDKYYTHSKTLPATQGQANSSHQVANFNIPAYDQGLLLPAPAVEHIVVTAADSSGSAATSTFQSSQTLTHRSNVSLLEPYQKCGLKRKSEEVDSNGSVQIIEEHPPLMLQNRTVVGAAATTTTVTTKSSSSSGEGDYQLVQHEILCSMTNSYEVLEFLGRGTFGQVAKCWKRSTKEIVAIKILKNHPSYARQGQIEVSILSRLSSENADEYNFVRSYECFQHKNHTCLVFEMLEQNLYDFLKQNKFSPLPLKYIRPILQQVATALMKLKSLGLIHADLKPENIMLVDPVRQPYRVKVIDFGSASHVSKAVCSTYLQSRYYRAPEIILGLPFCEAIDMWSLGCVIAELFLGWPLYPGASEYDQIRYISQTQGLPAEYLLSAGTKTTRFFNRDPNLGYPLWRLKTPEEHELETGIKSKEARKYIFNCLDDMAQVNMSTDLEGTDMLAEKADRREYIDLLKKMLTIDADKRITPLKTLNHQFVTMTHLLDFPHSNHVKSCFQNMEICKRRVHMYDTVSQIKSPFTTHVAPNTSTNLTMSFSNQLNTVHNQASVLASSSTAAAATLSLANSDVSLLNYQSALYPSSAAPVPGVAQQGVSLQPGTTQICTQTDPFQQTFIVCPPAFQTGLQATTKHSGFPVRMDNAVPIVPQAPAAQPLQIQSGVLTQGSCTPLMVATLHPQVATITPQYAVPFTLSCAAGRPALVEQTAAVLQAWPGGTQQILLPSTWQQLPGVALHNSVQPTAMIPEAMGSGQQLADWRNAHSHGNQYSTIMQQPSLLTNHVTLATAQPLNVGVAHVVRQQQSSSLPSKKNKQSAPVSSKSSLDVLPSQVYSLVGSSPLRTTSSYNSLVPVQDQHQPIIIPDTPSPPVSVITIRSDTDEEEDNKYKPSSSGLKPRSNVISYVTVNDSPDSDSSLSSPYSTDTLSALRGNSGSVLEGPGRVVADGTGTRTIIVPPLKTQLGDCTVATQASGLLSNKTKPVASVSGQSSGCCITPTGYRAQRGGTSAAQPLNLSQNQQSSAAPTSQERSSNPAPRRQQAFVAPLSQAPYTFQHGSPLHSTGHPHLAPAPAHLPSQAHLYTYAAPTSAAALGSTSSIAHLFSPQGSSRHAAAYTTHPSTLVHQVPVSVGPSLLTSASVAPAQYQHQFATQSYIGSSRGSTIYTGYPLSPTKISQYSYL
Sequence of PKN2 (human) (Q16513 whole entry, looked up): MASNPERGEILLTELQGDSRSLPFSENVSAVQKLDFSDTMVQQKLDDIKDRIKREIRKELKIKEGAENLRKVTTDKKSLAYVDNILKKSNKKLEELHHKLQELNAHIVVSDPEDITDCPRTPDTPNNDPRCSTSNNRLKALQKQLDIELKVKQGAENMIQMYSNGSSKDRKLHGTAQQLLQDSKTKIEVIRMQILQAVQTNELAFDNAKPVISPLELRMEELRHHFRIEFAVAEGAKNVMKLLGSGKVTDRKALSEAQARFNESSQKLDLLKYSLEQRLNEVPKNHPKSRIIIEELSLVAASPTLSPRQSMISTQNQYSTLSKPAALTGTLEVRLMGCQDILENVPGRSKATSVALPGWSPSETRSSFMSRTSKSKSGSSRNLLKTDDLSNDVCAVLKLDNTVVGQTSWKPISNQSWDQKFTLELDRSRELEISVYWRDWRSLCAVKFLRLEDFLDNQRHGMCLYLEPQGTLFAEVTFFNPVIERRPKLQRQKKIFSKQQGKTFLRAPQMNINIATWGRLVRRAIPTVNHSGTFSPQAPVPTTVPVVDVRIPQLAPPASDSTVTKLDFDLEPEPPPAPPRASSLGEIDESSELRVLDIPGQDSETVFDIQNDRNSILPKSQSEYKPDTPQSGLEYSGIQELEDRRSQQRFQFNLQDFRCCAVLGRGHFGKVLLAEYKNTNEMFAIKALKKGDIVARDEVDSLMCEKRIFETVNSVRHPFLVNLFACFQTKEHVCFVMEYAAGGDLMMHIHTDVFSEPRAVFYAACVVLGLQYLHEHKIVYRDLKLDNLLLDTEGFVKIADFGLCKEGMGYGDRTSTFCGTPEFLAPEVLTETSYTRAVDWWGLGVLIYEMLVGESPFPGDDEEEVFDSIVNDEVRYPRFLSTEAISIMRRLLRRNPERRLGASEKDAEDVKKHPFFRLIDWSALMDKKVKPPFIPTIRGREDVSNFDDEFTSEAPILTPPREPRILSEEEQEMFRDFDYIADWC
Sequence of FGR (human) (P09769 whole entry, looked up): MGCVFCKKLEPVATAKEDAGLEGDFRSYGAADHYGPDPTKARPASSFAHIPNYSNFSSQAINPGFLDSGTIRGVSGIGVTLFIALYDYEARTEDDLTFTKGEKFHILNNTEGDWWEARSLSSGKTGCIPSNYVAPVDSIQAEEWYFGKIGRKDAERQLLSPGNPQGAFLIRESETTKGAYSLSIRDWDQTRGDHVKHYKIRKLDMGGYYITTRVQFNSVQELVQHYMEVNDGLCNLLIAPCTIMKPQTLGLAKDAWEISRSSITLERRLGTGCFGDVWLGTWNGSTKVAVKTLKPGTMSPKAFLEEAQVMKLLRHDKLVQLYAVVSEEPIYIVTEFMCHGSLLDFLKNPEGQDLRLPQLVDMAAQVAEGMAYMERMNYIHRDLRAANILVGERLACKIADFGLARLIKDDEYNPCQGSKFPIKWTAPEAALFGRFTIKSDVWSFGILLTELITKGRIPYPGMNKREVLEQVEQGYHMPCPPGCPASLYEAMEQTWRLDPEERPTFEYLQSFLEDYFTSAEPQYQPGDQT
Sequence of MAP3K5 (human) (Q99683 whole entry, looked up): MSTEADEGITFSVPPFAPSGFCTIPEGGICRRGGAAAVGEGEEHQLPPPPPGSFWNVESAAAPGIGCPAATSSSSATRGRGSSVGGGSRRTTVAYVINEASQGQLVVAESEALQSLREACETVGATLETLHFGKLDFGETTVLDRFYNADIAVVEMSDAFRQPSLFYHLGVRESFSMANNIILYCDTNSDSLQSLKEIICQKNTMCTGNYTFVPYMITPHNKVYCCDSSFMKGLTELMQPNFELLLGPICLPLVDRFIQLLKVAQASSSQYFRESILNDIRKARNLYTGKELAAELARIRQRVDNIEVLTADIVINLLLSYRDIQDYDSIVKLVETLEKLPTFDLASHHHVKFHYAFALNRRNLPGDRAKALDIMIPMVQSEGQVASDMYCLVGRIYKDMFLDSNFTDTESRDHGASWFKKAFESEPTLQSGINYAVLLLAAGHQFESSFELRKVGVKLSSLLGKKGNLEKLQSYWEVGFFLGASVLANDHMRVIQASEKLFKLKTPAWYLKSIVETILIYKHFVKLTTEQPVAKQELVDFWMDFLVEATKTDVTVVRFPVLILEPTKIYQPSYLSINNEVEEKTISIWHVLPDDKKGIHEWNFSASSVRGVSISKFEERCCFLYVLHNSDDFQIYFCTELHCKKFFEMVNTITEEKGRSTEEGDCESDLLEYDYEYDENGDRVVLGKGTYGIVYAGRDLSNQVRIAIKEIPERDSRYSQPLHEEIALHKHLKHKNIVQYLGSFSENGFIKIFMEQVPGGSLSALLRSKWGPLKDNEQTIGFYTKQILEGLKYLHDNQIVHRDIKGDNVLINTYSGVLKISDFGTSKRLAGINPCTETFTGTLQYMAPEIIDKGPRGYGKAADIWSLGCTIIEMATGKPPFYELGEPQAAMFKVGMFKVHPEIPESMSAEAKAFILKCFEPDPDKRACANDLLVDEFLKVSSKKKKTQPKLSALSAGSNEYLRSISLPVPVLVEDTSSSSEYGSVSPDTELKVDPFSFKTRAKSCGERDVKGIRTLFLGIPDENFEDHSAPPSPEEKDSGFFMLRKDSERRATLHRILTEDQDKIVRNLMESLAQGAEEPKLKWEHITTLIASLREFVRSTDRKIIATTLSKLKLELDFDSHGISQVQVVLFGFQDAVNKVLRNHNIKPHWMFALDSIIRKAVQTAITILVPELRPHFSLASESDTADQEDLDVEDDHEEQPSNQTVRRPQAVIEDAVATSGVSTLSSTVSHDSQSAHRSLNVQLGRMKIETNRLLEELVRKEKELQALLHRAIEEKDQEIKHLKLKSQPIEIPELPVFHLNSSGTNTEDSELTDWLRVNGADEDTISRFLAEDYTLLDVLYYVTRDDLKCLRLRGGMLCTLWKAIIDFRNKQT

Compound	kinase still bound, per cent of control [1]	kinase still bound, per cent of control [2]	kinase still bound, per cent of control [3]	kinase still bound, per cent of control [4]	kinase still bound, per cent of control [5]	kinase still bound, per cent of control [6]	kinase still bound, per cent of control [7]	kinase still bound, per cent of control [8]	kinase still bound, per cent of control [9]	kinase still bound, per cent of control [10]	kinase still bound, per cent of control [11]	kinase still bound, per cent of control [13]	kinase still bound, per cent of control [14]	kinase still bound, per cent of control [15]	kinase still bound, per cent of control [16]	kinase still bound, per cent of control [17]	kinase still bound, per cent of control [18]	kinase still bound, per cent of control [19]	kinase still bound, per cent of control [20]	kinase still bound, per cent of control [21]	other results
COc1cc(N2CCN(C)CC2)ccc1Nc1nc(N)c(C(=O)c2c(Cl)cccc2Cl)s1	69%	87%	100%	86%	1.6%	22%	100%	79%	79%	97%	94%	13%	78%	100%	94%	79%	42%	76%	98%	88%	kinase still bound, per cent of control [12]: 77%; kinase still bound, per cent of control [22]: 100%; kinase still bound, per cent of control [23]: 98%; kinase still bound, per cent of control [24]: 99%; kinase still bound, per cent of control [25]: 93%; kinase still bound, per cent of control [26]: 100%; kinase still bound, per cent of control [27]: 90%; kinase still bound, per cent of control [28]: 100%; kinase still bound, per cent of control [29]: 91%; kinase still bound, per cent of control [30]: 81%; kinase still bound, per cent of control [31]: 58%; kinase still bound, per cent of control [32]: 94%; kinase still bound, per cent of control [33]: 24%; kinase still bound, per cent of control [34]: 72%; kinase still bound, per cent of control [35]: 100%; kinase still bound, per cent of control [36]: 82%; kinase still bound, per cent of control [37]: 14%; kinase still bound, per cent of control [38]: 44%; kinase still bound, per cent of control [39]: 100%
Nc1ccc(-c2ccc3ncc4ccc(=O)n(-c5cccc(C(F)(F)F)c5)c4c3c2)cn1	79%	87%	100%	100%	100%	12%	100%	86%	80%	100%	87%	15%	100%	100%	59%	66%	88%	100%	72%	81%	kinase still bound, per cent of control [40]: 99%; kinase still bound, per cent of control [22]: 100%; kinase still bound, per cent of control [23]: 37%; kinase still bound, per cent of control [24]: 100%; kinase still bound, per cent of control [25]: 100%; kinase still bound, per cent of control [26]: 100%; kinase still bound, per cent of control [27]: 100%; kinase still bound, per cent of control [28]: 100%; kinase still bound, per cent of control [29]: 100%; kinase still bound, per cent of control [30]: 100%; kinase still bound, per cent of control [31]: 55%; kinase still bound, per cent of control [32]: 95%; kinase still bound, per cent of control [33]: 100%; kinase still bound, per cent of control [34]: 100%; kinase still bound, per cent of control [35]: 100%; kinase still bound, per cent of control [36]: 100%; kinase still bound, per cent of control [37]: 100%; kinase still bound, per cent of control [38]: 87%; kinase still bound, per cent of control [39]: 100%
